{"source": "patent US7259140B2", "about": "“Heparin-binding peptides and uses thereof” (Thomas Jefferson University, priority 2003, dated 2007)", "type_in_all_cases": "biochemical, human", "key": {"[1]": {"system": "anti-Factor Xa Activity of the Low Molecular Weight Heparin Lovenox ®", "assay": "Anti-Factor Xa assay (Stachrom Heparin kit): neutralization of Lovenox in citrate or plasma in vitro", "settings": "for Lovenox ® Neutralized: Lovenox 0.7 U/ml", "method_in_brief": "(§1)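 Chromogenic anti-Factor Xa kit run with UFH, enoxaparin (Lovenox) or danaparoid (Orgaran) in 0.32% citrate or citrated plasma from three volunteers. Heparin/ATIII complex formed, peptide added, then Factor Xa and dye substrate; absorbance at 405 nm, inversely proportional to remaining anti-Factor Xa activity.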"}, "[2]": {"system": "anti-Factor Xa Activity of Unfractionated Heparin", "assay": "Anti-Factor Xa assay: neutralization of unfractionated heparin in citrate or plasma in vitro", "settings": "UFH 0.7 U/ml", "method_in_brief": "as §1"}, "[3]": {"system": "Lovenox ® Activity in Blood from Patients Treated with Lovenox ®", "assay": "Neutralizing Lovenox activity in blood from patients treated with Lovenox (anti-Factor Xa assay)", "settings": "Peptide 12 μg/ml", "method_in_brief": "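Blood came from consenting volunteers already on Lovenox® therapy. Neutralizing peptides were tested as a dose response from 1–60 μg/ml. Each point is mean ± SD of triplicate analyses on one patient's blood sample.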"}}}
{"substance": "VLVL(ARKKAAKA)3ARKKCAKA (VLVLARKKAAKAARKKAAKAARKKAAKAARKKCAKA; Fragment)", "values": [{"measurement": "rank as neutralizing agent of Lovenox", "setting": "[1]", "result": "most effective neutralizing agents"}, {"measurement": "Lovenox ® Neutralized", "setting": "[1]; 1 μg/ml Peptide, A Plasma", "result": "0.080 ± .036 U/ml"}, {"measurement": "Lovenox ® Neutralized", "setting": "[1]; 1 μg/ml Peptide, B Plasma", "result": "0.071 ± 0.056", "unit": "U/ml"}, {"measurement": "Lovenox ® Neutralized", "setting": "[1]; 1 μg/ml Peptide, C Plasma", "result": "0.077 ± 0.055", "unit": "U/ml"}, {"measurement": "Lovenox ® Neutralized", "setting": "[1]; 1 μg/ml Peptide, Citrate", "result": "0.091 ± .053 U/ml"}, {"measurement": "Lovenox ® Neutralized", "setting": "[1]; 6 μg/ml Peptide, A Plasma", "result": "0.218 ± .026 U/ml"}, {"measurement": "Lovenox ® Neutralized", "setting": "[1]; 6 μg/ml Peptide, B Plasma", "result": "0.233 ± 0.025", "unit": "U/ml"}, {"measurement": "Lovenox ® Neutralized", "setting": "[1]; 6 μg/ml Peptide, C Plasma", "result": "0.217 ± 0.154", "unit": "U/ml"}, {"measurement": "Lovenox ® Neutralized", "setting": "[1]; 6 μg/ml Peptide, Citrate", "result": "0.432 ± .086 U/ml"}, {"measurement": "Lovenox ® Neutralized", "setting": "[1]; 12 μg/ml Peptide, A Plasma", "result": "0.365 ± .076 U/ml"}, {"measurement": "Lovenox ® Neutralized", "setting": "[1]; 12 μg/ml Peptide, B Plasma", "result": "0.290 ± 0.047", "unit": "U/ml"}, {"measurement": "Lovenox ® Neutralized", "setting": "[1]; 12 μg/ml Peptide, C Plasma", "result": "0.380 ± 0.045", "unit": "U/ml"}, {"measurement": "Lovenox ® Neutralized", "setting": "[1]; 12 μg/ml Peptide, Citrate", "result": "0.484 ± .012 U/ml"}, {"measurement": "anti-Factor Xa activity of LMWH neutralized", "setting": "[1]; 12 μg/ml, plasma", "result": "about 0.4 U/ml"}, {"measurement": "Lovenox ® Neutralized", "setting": "[1]; 60 μg/ml Peptide, A Plasma", "result": "0.483 ± .070 U/ml"}, {"measurement": "Lovenox ® Neutralized", "setting": "[1]; 60 μg/ml Peptide, B Plasma", "result": "0.456 ± 0.029", "unit": "U/ml"}, {"measurement": "Lovenox ® Neutralized", "setting": "[1]; 60 μg/ml Peptide, C Plasma", "result": "0.461 ± 0.05", "unit": "U/ml"}, {"measurement": "Lovenox ® Neutralized", "setting": "[1]; 60 μg/ml Peptide, Citrate", "result": "0.550 ± .027 U/ml"}, {"measurement": "Lovenox ® Neutralized", "setting": "[1]; 120 μg/ml Peptide, A Plasma", "result": "0.674 ± .105 U/ml"}, {"measurement": "Lovenox ® Neutralized", "setting": "[1]; 120 μg/ml Peptide, B Plasma", "result": "0.515 ± 0.005", "unit": "U/ml"}, {"measurement": "Lovenox ® Neutralized", "setting": "[1]; 120 μg/ml Peptide, C Plasma", "result": "0.483 ± 0.044", "unit": "U/ml"}, {"measurement": "Lovenox ® Neutralized", "setting": "[1]; 120 μg/ml Peptide, Citrate", "result": "0.533 ± .017 U/ml"}, {"measurement": "anti-LMWH effect in citrate compared with plasma", "setting": "[1]; Table 2A", "result": "greater anti-LMWH effect in citrate than in plasma"}, {"measurement": "Lovenox/LMWH neutralization compared with protamine", "setting": "[1]; low concentrations, in the presence of plasma", "result": "more effective than protamine"}, {"measurement": "Unfractionated Heparin Neutralized", "setting": "[2]; 1 μg/ml Peptide, A Plasma", "result": "0.240 ± 0.061", "unit": "U/ml"}, {"measurement": "Unfractionated Heparin Neutralized", "setting": "[2]; 1 μg/ml Peptide, B Plasma", "result": "0.259 ± 0.063", "unit": "U/ml"}, {"measurement": "Unfractionated Heparin Neutralized", "setting": "[2]; 1 μg/ml Peptide, C Plasma", "result": "0.233 ± 0.075", "unit": "U/ml"}, {"measurement": "Unfractionated Heparin Neutralized", "setting": "[2]; 1 μg/ml Peptide, Citrate", "result": "0.262 ± 0.101", "unit": "U/ml"}, {"measurement": "Unfractionated Heparin Neutralized", "setting": "[2]; 6 μg/ml Peptide, A Plasma", "result": "0.574 ± 0.014", "unit": "U/ml"}, {"measurement": "Unfractionated Heparin Neutralized", "setting": "[2]; 6 μg/ml Peptide, B Plasma", "result": "0.550 ± 0.061", "unit": "U/ml"}, {"measurement": "Unfractionated Heparin Neutralized", "setting": "[2]; 6 μg/ml Peptide, C Plasma", "result": "0.559 ± 0.014", "unit": "U/ml"}, {"measurement": "Unfractionated Heparin Neutralized", "setting": "[2]; 6 μg/ml Peptide, Citrate", "result": "0.597 ± 0.034", "unit": "U/ml"}, {"measurement": "Unfractionated Heparin Neutralized", "setting": "[2]; 12 μg/ml Peptide, A Plasma", "result": "0.618 ± 0.014", "unit": "U/ml"}, {"measurement": "Unfractionated Heparin Neutralized", "setting": "[2]; 12 μg/ml Peptide, B Plasma", "result": "0.586 ± 0.001", "unit": "U/ml"}, {"measurement": "Unfractionated Heparin Neutralized", "setting": "[2]; 12 μg/ml Peptide, C Plasma", "result": "0.526 ± 0.031", "unit": "U/ml"}, {"measurement": "Unfractionated Heparin Neutralized", "setting": "[2]; 12 μg/ml Peptide, Citrate", "result": "0.534 ± 0.056", "unit": "U/ml"}, {"measurement": "Lovenox ® Neutralized", "setting": "[3]; blood of Lovenox-treated Patient Number 1", "result": 0.043, "unit": "U/ml"}, {"measurement": "Lovenox ® Neutralized", "setting": "[3]; blood of Lovenox-treated Patient Number 2", "result": 0.335, "unit": "U/ml"}, {"measurement": "Lovenox ® Neutralized", "setting": "[3]; blood of Lovenox-treated Patient Number 3", "result": 0.008, "unit": "U/ml"}, {"measurement": "Lovenox ® Neutralized", "setting": "[3]; blood of Lovenox-treated Patient Number 4", "result": 0.172, "unit": "U/ml"}, {"measurement": "Lovenox ® Neutralized", "setting": "[3]; blood of Lovenox-treated Patient Number 5", "result": 0.110, "unit": "U/ml"}, {"measurement": "Lovenox ® Neutralized", "setting": "[3]; blood of Lovenox-treated Patient Number 8", "result": 0.329, "unit": "U/ml"}, {"measurement": "Lovenox ® Neutralized", "setting": "[3]; blood of Lovenox-treated Patient Number 9", "result": 0.200, "unit": "U/ml"}, {"measurement": "Lovenox ® Neutralized", "setting": "[3]; blood of Lovenox-treated Patient Number 10", "result": 0.184, "unit": "U/ml"}, {"measurement": "Lovenox ® Neutralized", "setting": "[3]; blood of Lovenox-treated Patient Number 11", "result": 0.240, "unit": "U/ml"}]}
